Assay results from ChEMBL document CHEMBL1201862, “PubChem BioAssay data set” (2004).
The source made the active and inactive calls.

Tests used:
Vero = assay: viability of Vero cells under compound – cytotoxicity control for flavivirus capping enzyme inhibitors (AID 588742); format: functional; settings: Chlorocebus sabaeus
Genome polyprotein = Genome polyprotein (dengue virus type 2, UniProt P29990); assay: flavivirus cap methylation enzyme inhibition – biochemical, confirmation dose response, primary screen (AID 588689); format: functional
[1] = molecular target: T1, Long-chain-fatty-acid--AMP ligase FadD28 (Mycobacterium tuberculosis, UniProt P9WQ59); assay: Fluorescence polarization aasay to screen for inhibitors that compete for the binding of FadD28 to a bisubstrate Measured in Biochemical System Using Plate Reader - 2147-01_Inhibitor_Dose_CherryPick_Activity.; format: functional, Mycobacterium tuberculosis H37Rv
T1 sequence (P9WQ59 whole entry): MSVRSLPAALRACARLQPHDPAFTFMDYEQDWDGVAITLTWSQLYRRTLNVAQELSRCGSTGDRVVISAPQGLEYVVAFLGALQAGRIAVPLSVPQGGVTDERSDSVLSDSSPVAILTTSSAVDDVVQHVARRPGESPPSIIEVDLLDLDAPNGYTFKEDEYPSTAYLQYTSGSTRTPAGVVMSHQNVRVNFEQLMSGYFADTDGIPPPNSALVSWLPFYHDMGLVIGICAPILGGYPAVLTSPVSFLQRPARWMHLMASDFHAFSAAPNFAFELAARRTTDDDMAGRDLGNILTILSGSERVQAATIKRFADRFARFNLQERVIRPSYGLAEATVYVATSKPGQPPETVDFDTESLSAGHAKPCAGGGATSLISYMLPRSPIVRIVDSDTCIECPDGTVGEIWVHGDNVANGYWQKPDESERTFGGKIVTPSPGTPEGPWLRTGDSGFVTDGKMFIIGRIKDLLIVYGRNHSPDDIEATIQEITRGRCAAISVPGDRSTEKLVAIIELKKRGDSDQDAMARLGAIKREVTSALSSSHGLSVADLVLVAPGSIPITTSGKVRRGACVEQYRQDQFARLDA

[2] = molecular target: Latent membrane protein 1 (Human herpesvirus 4 (strain B95-8), UniProt P03230); assay: LMP1 TES1 pathway selectivity over dsRED control – imaging, HEK293T, dual-color eGFP/dsRED, cherry-picks, selectivity assay for LMP1 NF-kB inhibitor project, dose response (AID 588398); format: functional, cell-based
HEK293 = assay: EBV LMP1 TES2 canonical NF-kB signalling blockers – cell-based, HEK293, luciferase, cherry-pick, dose response (AID 588343); format: functional; settings: Homo sapiens
Protein RecA = molecular target: T2, Protein RecA (Mycobacterium tuberculosis, UniProt P9WHJ3); assay: Fluorescence Cell-Free Homogeneous Dose Retest to Identify Inhibitors of RecA-Intein Splicing Activity. [Related pubchem assays (depositor defined):AID2097, AID2223, AID489010, AID492950]; format: functional
T2 sequence (P9WHJ3 whole entry): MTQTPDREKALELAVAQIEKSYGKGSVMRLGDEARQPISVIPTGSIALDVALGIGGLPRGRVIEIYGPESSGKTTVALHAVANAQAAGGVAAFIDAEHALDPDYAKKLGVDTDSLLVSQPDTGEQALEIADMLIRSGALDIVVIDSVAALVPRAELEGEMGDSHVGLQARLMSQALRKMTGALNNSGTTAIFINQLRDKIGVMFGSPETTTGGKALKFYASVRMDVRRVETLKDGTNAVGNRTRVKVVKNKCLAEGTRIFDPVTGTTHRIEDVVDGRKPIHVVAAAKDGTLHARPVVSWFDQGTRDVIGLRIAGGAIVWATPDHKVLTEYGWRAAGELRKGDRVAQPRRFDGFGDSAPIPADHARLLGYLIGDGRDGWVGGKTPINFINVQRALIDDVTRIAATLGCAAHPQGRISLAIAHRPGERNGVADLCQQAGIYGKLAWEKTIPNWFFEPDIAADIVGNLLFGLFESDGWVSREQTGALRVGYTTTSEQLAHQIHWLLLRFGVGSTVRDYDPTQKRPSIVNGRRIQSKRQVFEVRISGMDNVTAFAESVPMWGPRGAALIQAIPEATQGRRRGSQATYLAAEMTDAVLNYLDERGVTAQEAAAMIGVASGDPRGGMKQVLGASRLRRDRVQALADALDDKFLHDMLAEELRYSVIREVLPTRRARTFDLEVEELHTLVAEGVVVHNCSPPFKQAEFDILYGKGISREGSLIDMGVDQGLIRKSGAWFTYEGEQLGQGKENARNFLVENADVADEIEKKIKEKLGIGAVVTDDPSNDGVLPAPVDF

[3] = molecular target: T3, Replicative DNA helicase DnaB (Mycobacterium tuberculosis, UniProt P9WMR3); assay: DnaB intein splicing inhibitors, dose response, biochemical, cell-free fluorescence (AID 449749); format: functional
T3 sequence (P9WMR3 whole entry): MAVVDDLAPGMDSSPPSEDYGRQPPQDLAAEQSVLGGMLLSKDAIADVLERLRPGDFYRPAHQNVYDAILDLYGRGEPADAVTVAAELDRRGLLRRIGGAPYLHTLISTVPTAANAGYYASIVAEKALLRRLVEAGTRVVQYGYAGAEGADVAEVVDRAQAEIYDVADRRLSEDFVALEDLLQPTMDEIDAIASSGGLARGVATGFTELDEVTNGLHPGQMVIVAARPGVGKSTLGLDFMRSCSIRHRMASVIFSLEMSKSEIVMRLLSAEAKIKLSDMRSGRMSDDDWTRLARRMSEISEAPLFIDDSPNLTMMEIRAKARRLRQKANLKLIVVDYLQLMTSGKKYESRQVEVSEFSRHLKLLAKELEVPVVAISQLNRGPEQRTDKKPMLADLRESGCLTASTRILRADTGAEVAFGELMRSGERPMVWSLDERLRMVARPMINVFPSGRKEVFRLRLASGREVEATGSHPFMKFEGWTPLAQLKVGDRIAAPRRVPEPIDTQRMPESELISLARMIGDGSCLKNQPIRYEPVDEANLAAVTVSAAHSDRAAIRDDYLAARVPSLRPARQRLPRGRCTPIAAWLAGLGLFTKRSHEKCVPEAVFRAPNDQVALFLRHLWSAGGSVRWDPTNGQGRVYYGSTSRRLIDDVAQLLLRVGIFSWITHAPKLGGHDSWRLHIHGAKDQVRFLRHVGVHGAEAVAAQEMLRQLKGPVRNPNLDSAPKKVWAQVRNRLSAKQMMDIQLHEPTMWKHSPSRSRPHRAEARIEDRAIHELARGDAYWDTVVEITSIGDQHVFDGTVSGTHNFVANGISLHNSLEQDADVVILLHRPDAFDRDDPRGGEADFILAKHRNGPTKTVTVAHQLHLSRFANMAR

[4] = HepG2 cell cytotoxicity, dose response, cytotoxicity control for non-replicating M. tuberculosis project (AID 489018); format: functional; settings: Mycobacterium tuberculosis
[5] = Fluorescence-based cell-based high throughput dose response assay for inhibitors of the interaction of nucleotide-binding oligomerization domain containing 2 (NOD2) and the receptor-interacting serine-threonine kinase 2 (RIPK2).; format: functional; settings: Homo sapiens
Paired box protein Pax-8 = Paired box protein Pax-8 (Homo sapiens, UniProt Q06710); assay: PAX8 transcriptional activity inhibition in RMG-I – RMG-I cells, luciferase, cherry-pick, dose response (AID 687027); format: functional, cell-based;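 also: luciferase reporter driven by Pax8 target thyroperoxidase promoter measured by SteadyGlo luminescence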
INS1 = assay: INS-1E survival protection against cytokine death – cell-based, luminescence, retest, dose response (AID 449756); format: functional; settings: Rattus norvegicus;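 also: cell death triggered by IL-1 beta plus TNF-alpha plus IFN-gamma mixture; protective hits raise ATP signal compared with cytokine alone wells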
[6] = Vero E6 cell cytotoxicity, dose response, cytotoxicity control for non-replicating M. tuberculosis project, secondary assay (AID 492998); format: functional, VeroE6; settings: Vero C1008
[7] = THP-1 cell cytotoxicity, dose response, cytotoxicity control for non-replicating M. tuberculosis project (AID 489025); format: functional
Beta Lactamase = Beta Lactamase (Pseudomonas aeruginosa, UniProt Q932Y6); assay: BLA reporter interference, concentration series – BLA reporter cells, FRET fluorescence, artefact control for TLR9-MyD88 binding inhibitor project, dose response (AID 588341); format: cell-based;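 also: cell based assay in CHO-K1 cells stably expressing beta-lactamase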
Beta-galactosidase = Beta-galactosidase (Escherichia coli, UniProt Q8VNN2); assay: PubChem AID 485352; format: functional
[8] = molecular target: Heat shock protein HSP 90-alpha (Homo sapiens, UniProt P07900); format: functional, organism-based
[9] = molecular target: Type-1 angiotensin II receptor (Homo sapiens, UniProt P30556); assay: antagonism of angiotensin II type 1 receptor – cell-based, uHTS hits, selectivity assay for APJ receptor antagonist project, dose response (AID 463214); format: functional;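 also: antagonist potency against angiotensin II stimulated AT1 response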
CHO = CHO cell viability loss, potency – luminescence, cytotoxicity control for TLR9-MyD88 binding inhibitor project, dose response (AID 588339); format: functional, cell-based, hamster; settings: Cricetulus griseus;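 also: CHO cells stably coexpressing TLR9 and MyD88 fusions from primary screen; compound exposure lasted 48 hours before viability readout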
[10] = molecular target: T4, Heat shock factor protein 1 (Mus musculus, UniProt P38532); assay: decrease of HSF1-responsive luciferase luminescence – cell-based, NIH3T3, dose retest, confirmation (AID 2382); format: functional;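 also: NIH3T3 fibroblasts with HSF1-driven luciferase reporter stressed by proteasome inhibitor MG132; luminescence from HSF1-driven luciferase expression after 8 hours of MG132 stress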
T4 sequence (P38532 whole entry): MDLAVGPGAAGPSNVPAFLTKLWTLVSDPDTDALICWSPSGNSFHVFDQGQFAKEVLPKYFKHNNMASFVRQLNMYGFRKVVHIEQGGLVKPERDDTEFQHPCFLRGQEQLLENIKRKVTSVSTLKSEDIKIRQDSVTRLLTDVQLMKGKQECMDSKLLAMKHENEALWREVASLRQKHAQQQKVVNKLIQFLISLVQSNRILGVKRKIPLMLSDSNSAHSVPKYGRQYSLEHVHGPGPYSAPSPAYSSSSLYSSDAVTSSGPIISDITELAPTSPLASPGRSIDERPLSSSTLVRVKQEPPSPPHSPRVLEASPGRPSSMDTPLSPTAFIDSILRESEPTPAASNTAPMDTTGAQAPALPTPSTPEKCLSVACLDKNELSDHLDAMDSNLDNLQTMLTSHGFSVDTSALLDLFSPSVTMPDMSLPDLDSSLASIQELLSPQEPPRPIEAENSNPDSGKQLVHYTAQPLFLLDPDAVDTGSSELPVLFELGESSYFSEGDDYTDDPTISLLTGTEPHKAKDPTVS

[11] = general cell-killing toxicity readout – plate reader, dry powder samples, cytotoxicity control for PAX8 inhibitor project, dose response (AID 743021); format: functional, cell-based
cells = format: functional

Chain of Genome polyprotein (P29990 2492-3391 limits assumed): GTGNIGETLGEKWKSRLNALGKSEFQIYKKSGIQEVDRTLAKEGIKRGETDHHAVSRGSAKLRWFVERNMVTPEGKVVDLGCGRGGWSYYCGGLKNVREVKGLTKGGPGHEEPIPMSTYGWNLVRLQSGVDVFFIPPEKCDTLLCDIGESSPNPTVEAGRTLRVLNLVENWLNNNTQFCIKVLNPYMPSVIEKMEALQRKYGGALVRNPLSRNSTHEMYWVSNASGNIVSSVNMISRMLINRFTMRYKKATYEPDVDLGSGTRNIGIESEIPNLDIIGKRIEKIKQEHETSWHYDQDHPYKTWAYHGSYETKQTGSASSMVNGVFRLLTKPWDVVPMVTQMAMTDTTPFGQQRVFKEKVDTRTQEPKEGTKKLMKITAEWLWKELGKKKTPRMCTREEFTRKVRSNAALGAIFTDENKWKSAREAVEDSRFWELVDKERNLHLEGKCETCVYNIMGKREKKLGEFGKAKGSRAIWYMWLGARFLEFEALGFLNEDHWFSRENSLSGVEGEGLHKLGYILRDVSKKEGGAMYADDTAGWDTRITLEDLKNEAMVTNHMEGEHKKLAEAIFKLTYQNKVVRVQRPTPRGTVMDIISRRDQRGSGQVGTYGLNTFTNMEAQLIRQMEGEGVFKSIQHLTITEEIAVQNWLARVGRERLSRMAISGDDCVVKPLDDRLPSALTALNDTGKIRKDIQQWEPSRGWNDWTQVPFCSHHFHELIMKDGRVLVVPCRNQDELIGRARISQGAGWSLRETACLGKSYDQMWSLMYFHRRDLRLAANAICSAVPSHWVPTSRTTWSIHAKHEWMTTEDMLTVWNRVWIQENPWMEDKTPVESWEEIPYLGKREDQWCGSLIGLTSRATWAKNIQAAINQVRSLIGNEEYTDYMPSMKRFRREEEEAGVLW
Chain of Type-1 angiotensin II receptor (P30556 whole entry, the tested form may be a part): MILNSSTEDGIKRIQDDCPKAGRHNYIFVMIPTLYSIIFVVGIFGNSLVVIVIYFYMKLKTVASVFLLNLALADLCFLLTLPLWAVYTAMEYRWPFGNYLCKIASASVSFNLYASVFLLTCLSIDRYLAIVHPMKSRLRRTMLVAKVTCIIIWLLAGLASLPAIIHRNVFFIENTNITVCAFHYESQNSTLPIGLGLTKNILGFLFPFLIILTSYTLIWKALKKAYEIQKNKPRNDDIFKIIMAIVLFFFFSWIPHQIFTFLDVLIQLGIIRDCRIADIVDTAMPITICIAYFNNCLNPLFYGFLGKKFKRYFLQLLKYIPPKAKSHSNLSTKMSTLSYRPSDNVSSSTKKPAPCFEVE
Chain of Beta Lactamase (Q932Y6 whole entry): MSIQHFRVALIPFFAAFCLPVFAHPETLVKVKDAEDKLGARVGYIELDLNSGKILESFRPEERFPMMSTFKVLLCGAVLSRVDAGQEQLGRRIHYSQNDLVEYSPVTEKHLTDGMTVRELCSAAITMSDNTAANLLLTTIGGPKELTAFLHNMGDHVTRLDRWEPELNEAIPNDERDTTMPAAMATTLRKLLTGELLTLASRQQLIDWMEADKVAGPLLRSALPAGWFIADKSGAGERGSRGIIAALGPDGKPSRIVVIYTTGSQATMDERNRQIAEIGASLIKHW
Chain of Beta-galactosidase (Q8VNN2 whole entry): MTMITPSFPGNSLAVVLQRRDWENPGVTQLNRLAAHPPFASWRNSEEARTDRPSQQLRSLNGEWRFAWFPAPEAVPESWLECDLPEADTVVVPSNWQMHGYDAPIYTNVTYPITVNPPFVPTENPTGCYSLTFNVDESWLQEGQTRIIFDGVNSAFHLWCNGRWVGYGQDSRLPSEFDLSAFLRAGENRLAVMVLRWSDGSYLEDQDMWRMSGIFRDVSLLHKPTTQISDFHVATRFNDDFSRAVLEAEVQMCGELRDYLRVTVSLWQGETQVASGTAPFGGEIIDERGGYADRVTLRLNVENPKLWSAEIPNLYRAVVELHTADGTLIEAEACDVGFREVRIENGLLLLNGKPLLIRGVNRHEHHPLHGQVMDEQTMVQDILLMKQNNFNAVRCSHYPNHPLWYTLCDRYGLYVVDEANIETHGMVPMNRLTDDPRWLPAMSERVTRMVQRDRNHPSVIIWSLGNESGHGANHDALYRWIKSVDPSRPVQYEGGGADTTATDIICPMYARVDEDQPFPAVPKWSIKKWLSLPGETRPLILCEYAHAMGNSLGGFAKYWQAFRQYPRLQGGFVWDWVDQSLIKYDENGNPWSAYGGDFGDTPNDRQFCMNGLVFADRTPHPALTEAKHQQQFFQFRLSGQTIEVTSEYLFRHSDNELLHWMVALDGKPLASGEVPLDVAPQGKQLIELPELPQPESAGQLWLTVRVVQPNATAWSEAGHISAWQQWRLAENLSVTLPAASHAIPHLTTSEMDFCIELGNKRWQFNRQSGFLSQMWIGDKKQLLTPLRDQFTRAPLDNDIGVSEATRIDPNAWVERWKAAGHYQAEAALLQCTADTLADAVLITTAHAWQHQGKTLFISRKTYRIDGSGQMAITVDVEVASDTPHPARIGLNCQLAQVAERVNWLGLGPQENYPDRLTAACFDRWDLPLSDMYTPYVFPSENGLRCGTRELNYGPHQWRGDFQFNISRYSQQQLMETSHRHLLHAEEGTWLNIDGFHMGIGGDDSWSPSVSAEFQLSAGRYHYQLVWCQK
Chain of Paired box protein Pax-8 (Q06710 whole entry): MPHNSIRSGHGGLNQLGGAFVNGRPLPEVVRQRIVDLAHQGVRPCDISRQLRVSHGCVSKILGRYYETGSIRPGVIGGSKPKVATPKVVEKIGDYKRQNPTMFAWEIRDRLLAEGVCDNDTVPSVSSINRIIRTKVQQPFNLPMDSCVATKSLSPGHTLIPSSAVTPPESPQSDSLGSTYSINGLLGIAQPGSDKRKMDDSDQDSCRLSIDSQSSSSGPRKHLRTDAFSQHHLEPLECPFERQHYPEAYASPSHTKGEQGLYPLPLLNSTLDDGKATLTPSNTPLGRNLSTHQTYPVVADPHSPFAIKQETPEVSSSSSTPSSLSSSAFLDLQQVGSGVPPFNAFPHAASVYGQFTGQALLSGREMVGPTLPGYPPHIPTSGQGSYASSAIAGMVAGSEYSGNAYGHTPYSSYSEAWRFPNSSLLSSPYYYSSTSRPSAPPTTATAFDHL
Chain of Latent membrane protein 1 (P03230 whole entry): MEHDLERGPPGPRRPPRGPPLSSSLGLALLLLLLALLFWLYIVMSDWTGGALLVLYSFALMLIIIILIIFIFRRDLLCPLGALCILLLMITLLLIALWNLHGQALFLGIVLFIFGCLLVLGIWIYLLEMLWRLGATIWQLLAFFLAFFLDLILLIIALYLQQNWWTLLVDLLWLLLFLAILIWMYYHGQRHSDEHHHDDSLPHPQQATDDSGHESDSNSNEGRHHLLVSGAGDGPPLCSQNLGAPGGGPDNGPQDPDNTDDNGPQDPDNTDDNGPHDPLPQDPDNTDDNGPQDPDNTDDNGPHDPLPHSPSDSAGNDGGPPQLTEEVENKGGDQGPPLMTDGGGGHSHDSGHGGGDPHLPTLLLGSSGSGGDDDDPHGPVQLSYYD

Which CC50 (Vero) does the source give for `CCc1ccc(/C=C/C(=O)C2C(=O)c3ccccc3C2=O)cc1` here?
The CC50 was 34.7 µM (active).

What about the IC50 (Genome polyprotein) of the same compound?
The IC50 was 62.8 µM (active).

What about the AC50 [1] of the same compound?
The AC50 was 80.4 µM (active).

What about the AC50 [2] of the same compound?
The AC50 was 27.4 µM (active).

And the AC50 (HEK293)?
The AC50 was 4.59 µM (active).

And the EC50 (Protein RecA)?
The EC50 was 22.7 µM (active).

What about the AC50 [3] of the same compound?
Its AC50 is 51.1 µM (active).

For `O=C(C#Cc1ccccc1)c1ccco1`, which CC50 [4] is on record?
The CC50 was 9.8 µM (active).

What about the IC50 [5] of the same compound?
The IC50 was 2.25 µM (active).

What about the AC50 (Paired box protein Pax-8) of the same compound?
The AC50 was 9.61 µM (active).

And the AC50 (INS1)?
The AC50 was 6.11 µM (active).

And the CC50 [6]?
The CC50 was 7.89 µM (active).

What about the CC50 [7] of the same compound?
Its CC50 is 11 µM (active).

What about the IC50 (Beta Lactamase) of the same compound?
Its IC50 is > 49.8 µM (inactive).

What about the EC50 (Beta-galactosidase) of the same compound?
Its EC50 is > 40 µM (inactive).

And the AC50 [8]?
Its AC50 is 3.05 µM (active).

And the IC50 [9]?
The IC50 was 8.43 µM (active).

And the IC50 (CHO)?
The IC50 was 1.82 µM (active).

What about the EC50 [10] of the same compound?
The EC50 was 6.57 µM (active).

What about the AC50 [11] of the same compound?
The AC50 was 23.7 µM (active).

And the IC50 (cells)?
Its IC50 is 1.32 µM (active).
